The experiment addresses Glutathione S-transferase 2 (Onchocerca volvulus). The experiment in a line: The compound was tested for it's inhibitory activity against Onchocerca volvulus Glutathione S-transferase 2.

What is called IC50 is the midpoint of a concentration-inhibition curve. High values mean weaker potency, low ones greater potency.

As for `NC(CCC(=O)NC(CSC1CCCC(=O)C1)C(=O)NCC(=O)O)C(=O)O` (centres undefined) [2-Amino-4-[1-(carboxymethyl-carbamoyl)-2-(3-oxo-cyclohexylsulfanyl)-ethylcarbamoyl]-butyric acid], the IC50 was 220 µM. The same measure for `N[C@@H](CCC(=O)N[C@@H](CS[C@H](CC(=O)O)C(=O)O)C(=O)NCC(=O)O)C(=O)O` [2-[2-(4-Amino-4-carboxy-butyrylamino)-2-(carboxymethyl-carbamoyl)-ethylsulfanyl]-succinic acid]: 19.1 µM; for `CC(C)C(=O)CC(SCC(NC(=O)CCC(N)C(=O)O)C(=O)NCC(=O)O)c1ccccc1` (centres undefined) [2-Amino-4-[1-(carboxymethyl-carbamoyl)-2-(4-methyl-3-oxo-1-phenyl-pentylsulfanyl)-ethylcarbamoyl]-butyric acid]: 31.9 µM; for `CCCCOC(=O)CC(SCC(NC(=O)CCC(N)C(=O)O)C(=O)NCC(=O)O)C(=O)O` (centres undefined) [2-[2-(4-Amino-4-carboxy-butyrylamino)-2-(carboxymethyl-carbamoyl)-ethylsulfanyl]-succinic acid 4-butyl ester]: 48 µM.

The record behind these values is BindingDB's records for doi:10.1016/s0960-894x(00)00142-6 (University of Wales, 2000).
